Reference: patent publication US20250381165A1, “Method of Use for Benzofuran Compounds” (Tampa Bay Research Institute, Inc., priority 2024, published 2025)

Legend:
[1] = system: splenocytes (B3Z activation); experiment: In vivo SIINFEKL loading, splenocytes used ex vivo to activate B3Z; parameters: species or system C57BL/6NCrl mice
Experimental: Six- to ten-week-old male and female C57BL/6NCrl mice (Charles River Laboratories, Wilmington MA; cat. no. 027) were used for all animal studies. The mice were maintained in accord with the NIH Guide for the Care and Use of Laboratory Animals. Experimental procedures were performed in accord with research protocols approved by the Tampa Bay Research Institute's Institutional Animal Care and Use Committee. Mice were maintained in an INOVIVE individually ventilated cage system with 3 mice per cage containing 100% virgin wood pulp bedding (Harlan Teklad™, Harlan Sprague Dawley Inc., Indianapolis, IA; cat. n.o 7099). Water and food (Harlan Teklad™; cat. no. 8640) were available ad libitum. The mice were maintained on a cycle of 12 h of light and 12 h of dark in an environment with a temperature of 74-76° […]. and 40-60% humidity. All cages underwent 40 air changes hourly in the negative pressure mode, in accordance with manufacturer's recommendations. Both the intake and exhaust air from the system were filtered through HEPA filters to maintain a clean environment. Stock solutions of BzFβ were solubilized in alkaline water (pH 10) and then sterile filtered through 0.22 µm syringe filters. BzFβ used for iv or im injections was diluted in 0.9% saline (normal saline). The stock solutions of the SIINFEKL peptide were prepared in 1× calcium/magnesium free Dulbecco's phosphate-buffered saline (DPBS; ThermoFisher Scientific, cat. no. 14190144).
Since the oral route of drug delivery is preferred, various doses of BzFβ (1, 2, 4 mg) were administered by oral gavage, immediately following an iv injection of 50 μg SIINFEKL peptide. One-hour post-treatment the blood and spleens from each mouse was collected. […] The cell count was determined using the MUSE cell viability kit (MCH600103) and MUSE Cell Analyzer (Luminex Corp, Austin TX).
One hour later the splenocytes were isolated and immediately tested for peptide loading or used to activate B3Z cells. […] The colorimetric response was allowed to develop for 15-240 min and the OD 560 nm was measured at various time points using a Synergy HTX plate reader. […]

[2] = system: B16F10 cells (B3Z activation); experiment: B3Z activation by B16F10 (OVA or SIINFEKL); format: cell-based, murine
Experimental: B16F10 were plated at a density of 2.5 or 5×10^4 cells/well (100 μL/well in 96 well plates) and cultured overnight in cDMEM. The cells were washed with DPBS and then treated for 1-24 h with the indicated concentrations of BzFβ or co-treated with the indicated concentrations of BzFβ and 1.0 mg/mL OVA, suspended in complete media. Cells treated with BzFβ only were pulsed with 2 nM SIINFEKL pulsed for 1 h. The cells were then co-cultured with equal number of B3Z cells at 37° C. for 19 h.
In this experiment the activity of the dipeptide, GL, was also examined, as it has been previously reported to function as a peptide exchange factor. (Saini, et al., Dipeptides catalyze rapid peptide exchange on MHC class I molecules. Proc Natl Acad Sci USA. 2015 Jan. 6; 112(1):202-7; Saini, et al., Empty peptide-receptive MHC class I molecules for efficient detection of antigen-specific T cells. Sci Immunol. 2019 Jul. 19; 4(37):eaau9039). B16F10 were plated at a density of 2.5 or 5×10^4 cells/well (100 μL/well in 96 well plates) and cultured overnight in cDMEM. The cells were washed with DPBS and then co-treated for 24 h with 10 mM (1.88 mg/mL) of GL and 1.0 mg/mL OVA or were pulsed with 2 nM SIINFEKL for 1 h following treatment with 10 mM GL in complete media. The cells were then co-cultured with an equal number of B3Z cells at 37° C. for 19 h.

[3] = system: DC2.4 cells (B3Z activation); experiment: Cross-presentation of whole OVA by DC2.4 to B3Z; format: cell-based, murine; details: co-treatment 6 h, 0.5 mg/mL OVA; p<0.001 all doses
Experimental: DC2.4 cells (5×10^5 cells/ml) were seeded at 100 μL/well in 96 well plates and cultured overnight. The cells were washed with DPBS, and co-exposed to 0.5 mg/mL soluble whole OVA, along with increasing concentrations of BzFβ for 6 h, The cells were then co-cultured with equal number of B3Z cells at 37° C. for 19 h.

`O=C(O)/C=C/c1ccc2occc2c1` [BzFβ, (2E)-3-(1-benzofuran-5-yl)prop-2-enoic acid] was tested, and the “ability of splenocytes to activate B3Z, three routes” value ([1]; gavage 1 mg, iv 50 μg or im 100 μg after iv 50 μg SIINFEKL, 1 h) was “successful at enhancing the ability of the splenocytes to activate B3Z”, the “B3Z response, comparison of routes” value ([1]; iv 50 μg BzFβ) was “greatest response” and the “B3Z response to splenocytes versus peptide alone” value ([1]; oral gavage 1, 2, 4 mg after iv 50 μg SIINFEKL, 1 h) was “significantly greater response”. The “B3Z activation by B16F10, OVA” value ([2]; co-treatment with 1 mg/mL OVA, GL at 10 mM) was “failed to activate the B3Z cells”, the “B3Z activation by B16F10, SIINFEKL” value ([2]; pre-treatment, 1 h pulse 2 nM SIINFEKL, BzFβ 25, 50 μg, GL 10 mM) was “significantly activate B3Z” and the “B3Z response, cross-presentation of OVA” value [3] was “significantly enhance the B3Z response”.
